Source: publication PMC5789847, “Bismuth antimicrobial drugs serve as broad-spectrum metallo-β-lactamase inhibitors” (Nature Communications, 2018)
Several values for one entry are separate records, joined by “and”; a condition that tells them apart may be missing. Equal entries are not always repeated.

Key:
[1] = system: NDM-C. freundii (NDM-1^+); experiment: Microdilution MIC/MBC and checkerboard assay; format: cell-based, Citrobacter freundii
NDM-BL21 = experiment: Microdilution MIC assay; format: cell-based, E. coli
Excerpt: (§1) Other procedures were kept strictly the same.

NDM-Rosetta = experiment: Microdilution MIC assay; format: cell-based, E. coli
Excerpt: as §1

NDM-Rosetta OX = experiment: Microdilution MIC assay; format: cell-based, E. coli; details: NDM-Rosetta OX
Method: For the test of NDM-Rosetta OX, the growth condition briefly goes as follow. Overnight culture of NDM-Rosetta was 1000-fold diluted into fresh LB medium and regrew to OD ~0.6. The overexpression of NDM-1 was induced by addition of 1 mM isopropyl β-D-1-thiogalactopyranoside (IPTG) for 4 h at 37 °C. The following susceptibility test was performed as described in the Microdilution MIC and MBC assay section in the methodology by using the resulting bacterial pellets with the supplementation of 200 µM IPTG.
as §1

NDM-1 = NDM-1 (Klebsiella pneumoniae, UniProt C7C422); format: biochemical; details: MER substrate
Chain of NDM-1 (C7C422 29-270, looked up, species assumed): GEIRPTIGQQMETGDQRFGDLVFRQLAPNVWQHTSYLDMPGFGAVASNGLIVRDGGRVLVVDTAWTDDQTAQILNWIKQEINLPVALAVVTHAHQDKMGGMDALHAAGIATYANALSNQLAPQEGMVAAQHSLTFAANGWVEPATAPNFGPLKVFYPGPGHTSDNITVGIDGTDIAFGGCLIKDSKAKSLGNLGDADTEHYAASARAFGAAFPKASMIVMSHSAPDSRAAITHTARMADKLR
Method: (§2) Freshly prepared 50 nM of Zn2-NDM-1, Zn2-VIM-2, or Zn2-IMP-4 in 50 mM HEPES/Na pH 7.0, 100 mM NaCl were first incubated with various concentrations of CBS for 1 h at 25 °C, then mixed with equal volume of 0.2 mM MER. The assay was performed in a 1 cm quartz cuvette using the kinetic mode on a Varian Cary50 UV-visible spectrophotometer at 25 °C. The decrease in absorbance at 300 nm due to ring-opening of MER was monitored every second for a duration of 10 min until the reaction was completed. The initial rates were extracted and calculated from each reaction curves for fitting IC50 curves.

VIM-2 = VIM-2 (Escherichia coli, UniProt Q5U7L7); format: biochemical; details: MER substrate
Method: as §2

NDM-1-C208A [2] = molecular target: T1, NDM-1-C208A (Klebsiella pneumoniae, UniProt C7C422, C208A); experiment: Cellular thermal shift assay, mutant strain C208A-Rosetta; format: cell-based, E. coli; details: control 48.24 °C
T1 sequence (C7C422 29-270 C208A): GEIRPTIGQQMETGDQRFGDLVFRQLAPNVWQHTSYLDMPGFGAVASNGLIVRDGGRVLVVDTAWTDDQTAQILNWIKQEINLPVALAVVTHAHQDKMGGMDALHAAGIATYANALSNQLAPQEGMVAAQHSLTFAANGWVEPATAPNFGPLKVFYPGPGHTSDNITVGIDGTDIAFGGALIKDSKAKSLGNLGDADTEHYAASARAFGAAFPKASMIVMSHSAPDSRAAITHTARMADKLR

NDM-HK = experiment: In vitro cell infection assay (MDCK cells); format: cell-based, E. coli
Method: MDCK cell was cultured in minimum essential Media (MEM) supplemented with fetal bovine serum (FBS, 10%) and grown at 37 °C in 5% CO2-humidified atmosphere for 3 days. About 1.0 × 10^5 MDCK cells were seeded per well in 24-well plates and incubated as described above for 48 h to ensure confluency. Logarithmic cultures of NDM-HK were washed with PBS for three times and re-suspended in MEM/10% FBS resulting in the initial bacterial density of about 2.0 × 10^7 CFU mL^−1. Then, 500 μL of bacterial suspension were added to each well and substituted for the previous MDCK culture medium. The plates were centrifuged at 800 × g for 10 min and then incubated for another 6 h, executing the bacterial infection at multiplicity of infection (MOI) of 200. We then used two infection models for examination, viz, the cell-associated bacterial infection and cell-invaded bacterial infection. The cell-associated bacteria are herein defined as bacteria that attach to, penetrate, or transcytose in MDCK cells, while the cell-invaded bacteria are defined as bacteria that penetrate or transcytose MDCK cells. For the cell-invaded infection, the infected cells were incubated in culture medium supplemented with ciprofloxacin (100 µg mL^−1) for 1 h to remove extracellular bacteria. Then, the treated cells were washed vigorously with PBS for six times and replenished with culture medium. For the cell-associated infection, the infected cells were only washed vigorously with PBS for six times to remove unbound bacteria. The infected MDCK cells were then exposed to either MER or CBS, or their combination for overnight under identical cell culture condition. Cells in the absence of drugs served as a control. The bacterial loads were examined by lysing MDCK cells with 1% Triton X-100 in PBS and serially diluting the resulting lysates to enumerate bacterial colonies by agar plating. The assay was performed in triplicate, repeated three times, and results were expressed as average ± SD.

NDM-1-C208A [3] = molecular target: T1, NDM-1-C208A; experiment: Residual enzyme activity of NDM-1 variant with CBS at IC50; format: biochemical; details: CBS at IC50 concentration, compared with WT NDM-1

Substance: colloidal bismuth subcitrate [CBS]
- MBC of MER in combination with compound at 32 µg mL^-1 ([1]; NDM-C. freundii (NDM-CF)): 1 µg/mL
- MIC of MER in combination with compound at 32 µg mL^-1 ([1]; NDM-C. freundii (NDM-CF)): 0.5 µg/mL
- MBC of Bi(III) compound alone ([1]; NDM-CF): > 256 µg/mL
- MIC of Bi(III) compound alone ([1]; NDM-CF): > 256 µg/mL
- FICI ([1]; NDM-CF, MER + compound, 256 µg mL^-1 set as MIC of Bi(III)): 0.125
- decrease in MIC of MER in combination with CBS (NDM-BL21; NDM-1 positive E. coli BL21(DE3)): 8 fold
- MIC of MER in combination with CBS (NDM-BL21; NDM-1 positive E. coli BL21(DE3), CBS concentration not stated): 2 µg/mL
- MIC of MER in combination with CBS at 16 µg mL-1 (NDM-BL21; NDM-BL21): 8 µg/mL
- MIC of MER in combination with CBS at 32 µg mL-1 (NDM-BL21; NDM-BL21): 4 µg/mL
- MIC of MER in combination with CBS at 256 µg mL-1 (NDM-BL21; NDM-BL21): 2 µg/mL
- decrease in MIC of MER in combination with CBS (NDM-Rosetta; NDM-1 positive E. coli Rosetta(DE3)): 8 fold
- MIC of MER in combination with CBS (NDM-Rosetta; NDM-1 positive E. coli Rosetta(DE3), CBS concentration not stated): 4 µg/mL
- MIC of MER in combination with CBS at 16 µg mL-1 (NDM-Rosetta; NDM-Rosetta): 8 µg/mL
- MIC of MER in combination with CBS at 32 µg mL-1 (NDM-Rosetta; NDM-Rosetta): 4 µg/mL
- MIC of MER in combination with CBS at 256 µg mL-1 (NDM-Rosetta; NDM-Rosetta): 4 µg/mL
- MIC of MER in combination with CBS at 16 µg mL-1 (NDM-Rosetta OX): 128 µg/mL
- MIC of MER in combination with CBS at 32 µg mL-1 (NDM-Rosetta OX): 128 µg/mL
- MIC of MER in combination with CBS at 256 µg mL-1 (NDM-Rosetta OX): 32 µg/mL
- IC50 (NDM-1; NDM-1 50 nM, 1 h preincubation): 2.81 ± 0.34 µM
- maximal inhibition of MBL activity (NDM-1; NDM-1, dose-dependent): approximately 90%
- IC50 (VIM-2; VIM-2 50 nM, 1 h preincubation): 3.54 µM and 3.55 µM
- maximal inhibition of MBL activity (VIM-2; VIM-2, dose-dependent): approximately 90%
- melting temperature, treated group (NDM-1-C208A [2]): 49.72 °C
- decrease in the bacterial load, bacteria-invaded model (NDM-HK; MER and CBS combination): more than 100 fold
- viable bacterial loads, cell-associated infection (NDM-HK; MOI 200, MER and CBS (32 μg mL^−1) in combination, overnight): ~10^4 CFU
- inhibitory effect on NDM-1-C208A (NDM-1-C208A [3]): much reduced inhibitory effect
